Structures can show the parent of a compound that is named as a salt.
Each compound was assayed against T1, murine Nurr 1 receptor (Mus musculus, UniProt Q06219) (assay: In vitro activity on N2A cells (NBRE-luciferase reporter gene)). Details: N2A cell line endogenously expressing Nurr 1, stably transfected with 8NBRE-luciferase; products incubated 24 hours.
T1 construct: a cell line (N2A) endogenously expressing the murine Nurr 1 receptor; host or cells: Neuro-2A (N2A) mouse neuroblastoma cells stably transfected with 8NBRE-luciferase
T1 sequence (Q06219 whole entry): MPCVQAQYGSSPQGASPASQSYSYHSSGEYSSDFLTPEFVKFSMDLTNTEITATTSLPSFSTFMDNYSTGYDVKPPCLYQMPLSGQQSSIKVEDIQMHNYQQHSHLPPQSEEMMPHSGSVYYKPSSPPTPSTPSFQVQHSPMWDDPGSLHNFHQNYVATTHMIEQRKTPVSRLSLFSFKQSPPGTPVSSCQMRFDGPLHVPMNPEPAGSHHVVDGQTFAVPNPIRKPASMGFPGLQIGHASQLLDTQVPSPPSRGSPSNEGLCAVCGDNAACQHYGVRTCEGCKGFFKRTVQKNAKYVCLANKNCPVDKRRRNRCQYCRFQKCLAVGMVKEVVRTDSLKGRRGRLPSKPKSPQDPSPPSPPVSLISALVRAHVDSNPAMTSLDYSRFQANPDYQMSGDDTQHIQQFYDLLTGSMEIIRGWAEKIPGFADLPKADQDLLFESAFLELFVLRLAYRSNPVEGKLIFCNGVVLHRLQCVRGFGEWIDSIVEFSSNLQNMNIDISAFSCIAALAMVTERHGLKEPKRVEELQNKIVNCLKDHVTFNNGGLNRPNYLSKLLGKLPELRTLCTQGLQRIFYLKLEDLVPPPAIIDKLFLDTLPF
Assay type: cell-based
Protocol: Evaluation of the In Vitro Activity on N2A Cells
The activity of the compounds according to the invention was evaluated on a cell line (N2A) endogenously expressing the murine Nurr 1 receptor and stably transfected with the NOT binding response element (NBRE) coupled to the luciferase reporter gene. The EC50 values are between 0.01 and 1000 nM. The tests were performed according to the procedure described hereinbelow.
The cell line Neuro-2A is obtained from a standard commercial source (ATCC). The clone Neuro-2A was obtained from a spontaneous tumour originating from a strain of albino mice A by R. J Klebe et al. This line Neuro-2A is then stably transfected with 8NBRE-luciferase. The N2A-8NBRE cells are cultured to the point of confluence in 75 cm^2 culture flasks containing DMEM supplemented with 10% foetal calf serum, 4.5 g/L of glucose and 0.4 mg/ml of geneticin. After culturing for one week, the cells are recovered with 0.25% trypsin for 30 seconds and then resuspended in DMEM without phenol red, containing 4.5 g/L of glucose and 10% Hyclone defatted serum, and placed in white, transparent-based 96-well plates. The cells are deposited at a rate of 60 000 per well in 75 μL for 24 hours before adding the products. The products are applied in 25 μL and incubated for a further 24 hours. On the day of measurement, an equivalent volume (100 μL) of Steadylite is added to each well, and the wells are then left for 30 minutes to obtain complete lysis of the cells and maximum production of the signal. The plates are then measured in a microplate luminescence counter, after having been sealed with an adhesive film. The products are prepared in the form of a 10^−2 M stock solution, and then diluted in 100% of DMSO. Each concentration of product is prediluted in culture medium before incubation with the cells thus containing 0.625% final of DMSO.

Row | SMILES | EC50 [nM]
1 | O=C(Nc1cccc(F)c1)c1cn2cc(-c3nc[nH]n3)ccc2n1 [Compound 53, N-(3-Fluorophenyl)-6-(1H-1,2,4-triazol-3-yl)imidazo[1,2-a]pyridine-2-carboxamide] | 0.4
2 | O=C(Nc1ccccc1)c1cn2cc(-c3cn[nH]c3)ccc2n1 [Compound 29, N-Phenyl-6-(1H-pyrazol-4-yl)imidazo[1,2-a]pyridine-2-carboxamide] | 1.1
3 | O=C(Nc1ccccc1)c1cn2cc(C3=NCCN3)ccc2n1 [Compound 17, 6-(4,5-Dihydro-1H-imidazol-2-yl)-N-phenylimidazo[1,2-a]pyridine-2-carboxamide hydrochlorides (1:1) and (1:2)] | 26.8
4 | O=C(Nc1cccc(F)c1F)c1cn2cc(-c3ccccn3)ccc2n1 [Compound 45, N-(2,3-Difluorophenyl)-6-(pyrid-2-yl)imidazo[1,2-a]pyridine-2-carboxamide] | 1.2
5 | O=C(Nc1cc(F)cc(F)c1)c1cn2cc(-c3ccoc3)ccc2n1 [Compound 24, N-(3,5-Difluorophenyl)-6-(furan-3-yl)imidazo[1,2-a]pyridine-2-carboxamide] | 0.9
6 | O=C(Nc1ccccc1)c1cn2cc(-c3ccccn3)ccc2n1 [Compound 3, N-Phenyl-6-(pyrid-2-yl)imidazo[1,2-a]pyridine-2-carboxamide] | 0.9
